Test results published in patent US10477863B2, “Use of herbicidal compositions for controlling unwanted vegetation” (BASF SE, priority 2015, dated 2019).

Tested on: Amaranthus palmeri
Assay: Field test, post-emergence spray: visual injury of Palmer amaranth rated 0 to 100
Assay type: in vivo
Settings: 3 days after treatment, 0.25% non-ionic surfactant
Excerpt: Dicamba was applied as Engenia™ herbicide [BAPMA salt-(bis(3-aminopropyl)methylamine))], while 2,4-DB was applied as the commercially available Butyrac® 200 (dimethylamine salt). Herbicides were applied at an appropriate weight of each product dissolved in 1 liter of water. All herbicide treatments were applied with 0.25% by volume of a non-ionic surfactant (Induce®; an adjuvant composition consisting of alkyl aryl polyoxyalkane ethers, alkanolamides, dimethyl siloxane and free fatty acids). The spray solution was applied by a CO2 powered backpack sprayer delivering the spray solution at a rate of 185 liter/ha. The spray solution was applied to a field naturally populated with Palmer amaranth (Amaranthus palmeri) with an average height of 4-6 inches in height, however, plants both larger and smaller plants were in the field at the time of application as well. Palmer amaranth was assessed for visual injury 3 days after treatment and injury was rated on a scale from 0 to 100, whereby 0 equals no herbicidal response and 100 equals complete control of the Palmer amaranth.

Structure (SMILES)	herbicidal activity against Amaranthus palmeri (% control), found (dicamba 420 g/ha a.i., Exp. No. 1) [% control]	herbicidal activity against Amaranthus palmeri (% control), found (2,4-DB 17.5 g/ha a.i., Exp. No. 2) [% control]	herbicidal activity against Amaranthus palmeri (% control), found (2,4-DB 35 g/ha a.i., Exp. No. 3) [% control]	herbicidal activity against Amaranthus palmeri (% control), found (2,4-DB 52.5 g/ha a.i., Exp. No. 4) [% control]
COc1c(Cl)ccc(Cl)c1C(=O)O [dicamba, 3,6-Dichloro-2-methoxybenzoic acid]	60			
O=C(O)CCCOc1ccc(Cl)cc1Cl [2,4-DB, 4-(2,4-Dichlorophenoxy)butanoic acid]		0	5	15
